Source: patent US7667022B2, “Promoter for high-throughput screening for inhibitors against Mycobacteria under low carbon conditions” (Council of Scientific & Industrial Research, priority 2003, dated 2010)

System: Mycobacterium smegmatis, mc^2155
Experiment: Percent inhibition of growth of liquid culture (optical density vs control without antibiotic) at 2% or 0.02% glucose
Format: cell-based
Settings: for % inhibition of growth at 0.02% Glucose: 0.02% Glucose (starved)

CC[C@@H](CO)NCCN[C@@H](CC)CO [Ethambutol]
% inhibition of growth at 0.02% Glucose (0.15 μgm/ml): 37% | % inhibition of growth at 2% Glucose (0.15 μgm/ml): 44% | % inhibition of growth at 0.02% Glucose (0.31 μgm/ml): 66% | % inhibition of growth at 2% Glucose (0.31 μgm/ml): 85% | % inhibition of growth at 0.02% Glucose (0.63 μgm/ml): 68% | % inhibition of growth at 2% Glucose (0.63 μgm/ml): 91% | % inhibition of growth at 0.02% Glucose (1.25 μgm/ml): 72% | % inhibition of growth at 2% Glucose (1.25 μgm/ml): 93%

CO[C@H]1/C=C/O[C@@]2(C)Oc3c(C)c(O)c4c(O)c(c(/C=N/N5CCN(C)CC5)c(O)c4c3C2=O)NC(=O)/C(C)=C\C=C\[C@H](C)[C@H](O)[C@@H](C)[C@@H](O)[C@@H](C)[C@H](OC(C)=O)[C@@H]1C [Rifampicin]
% inhibition of growth at 0.02% Glucose (0.25 μgm/ml): 9% | % inhibition of growth at 2% Glucose (0.25 μgm/ml): 39% | % inhibition of growth at 0.02% Glucose (0.5 μgm/ml): 17% | % inhibition of growth at 2% Glucose (0.5 μgm/ml): 58% | % inhibition of growth at 0.02% Glucose (1.0 μgm/ml): 29% | % inhibition of growth at 2% Glucose (1.0 μgm/ml): 70% | % inhibition of growth at 0.02% Glucose (2.0 μgm/ml): 68% | % inhibition of growth at 2% Glucose (2.0 μgm/ml): 89% | reduction of inhibition of growth in the presence of the promoter under a stationary or a starved state (stationary or starved state): about 20%

NNC(=O)c1ccncc1 [Isoniazide]
% inhibition of growth at 0.02% Glucose (0.8 μgm/ml): 12% | % inhibition of growth at 2% Glucose (0.8 μgm/ml): 33% | % inhibition of growth at 0.02% Glucose (1.6 μgm/ml): 30% | % inhibition of growth at 2% Glucose (1.6 μgm/ml): 70% | % inhibition of growth at 0.02% Glucose (3.2 μgm/ml): 70% | % inhibition of growth at 2% Glucose (3.2 μgm/ml): 90% | % inhibition of growth at 0.02% Glucose (6.4 μgm/ml): 78% | % inhibition of growth at 2% Glucose (6.4 μgm/ml): 96%
